Data set [1] concerns the target Mu-type opioid receptor (Cavia porcellus, UniProt P97266). Briefly: Agonist activity at mu opioid receptor in guinea pig ileum assessed as inhibition of electrically-stimulated muscle contraction. Type of data set: tissue-based.
Data set [2] deals with Delta-type opioid receptor (Mus musculus, UniProt P32300). Briefly: Agonist activity at delta opioid receptor in mouse vas deferens assessed as inhibition of electrically-stimulated muscle contraction. Type of data set: tissue-based.
Sequence of Delta-type opioid receptor (Mus musculus, UniProt P32300) (P32300 whole entry): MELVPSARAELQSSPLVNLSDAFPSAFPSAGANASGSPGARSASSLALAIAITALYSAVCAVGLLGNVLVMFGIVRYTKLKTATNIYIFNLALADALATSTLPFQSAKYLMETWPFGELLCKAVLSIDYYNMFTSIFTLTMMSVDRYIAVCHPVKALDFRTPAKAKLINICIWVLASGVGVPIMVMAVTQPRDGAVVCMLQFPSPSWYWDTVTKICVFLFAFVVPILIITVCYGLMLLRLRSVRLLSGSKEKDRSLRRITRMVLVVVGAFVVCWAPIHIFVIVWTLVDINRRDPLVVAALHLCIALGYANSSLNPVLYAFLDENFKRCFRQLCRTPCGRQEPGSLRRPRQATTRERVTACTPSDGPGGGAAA
Data set [3] has as its target T1, Mu-type opioid receptor (Homo sapiens, UniProt P35372). The settings on record: HEK293, at 100 µM.
For data set [4], the target named is Delta-type opioid receptor (Rattus norvegicus, UniProt P33533). Briefly: Displacement of [3H]deltorphin-2 from delta opioid receptor in Sprague-Dawley rat brain P2 synaptosomal membranes. On the technique in general: Loss of bound radioactivity is the signal in a displacement assay; it reports binding, not function.
Sequence of Delta-type opioid receptor (Rattus norvegicus, UniProt P33533) (P33533 whole entry, the tested form may be a part): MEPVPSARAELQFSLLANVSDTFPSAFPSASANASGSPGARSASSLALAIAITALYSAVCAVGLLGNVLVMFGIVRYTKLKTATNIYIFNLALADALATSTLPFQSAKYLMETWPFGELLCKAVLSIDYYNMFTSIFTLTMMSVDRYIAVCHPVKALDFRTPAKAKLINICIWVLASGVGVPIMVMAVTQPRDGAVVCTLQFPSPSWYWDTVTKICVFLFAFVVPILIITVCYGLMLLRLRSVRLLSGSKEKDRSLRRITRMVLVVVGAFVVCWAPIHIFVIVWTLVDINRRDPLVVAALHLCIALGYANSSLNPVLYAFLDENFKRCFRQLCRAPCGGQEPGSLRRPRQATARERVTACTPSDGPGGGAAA
The target in data set [5] is T1, Mu-type opioid receptor. Briefly: Agonist activity at GFP-fused mu opioid receptor (unknown origin) expressed in HEK293 cells assessed as recruitment of beta-arrestin-2 after 10 mins by BRET assay. Type of data set: cell-based. The settings on record: read-out: EC50. A general note: Bioluminescence resonance energy transfer reports proximity on the nanometre scale.

Data set [6] addresses T2, Delta-type opioid receptor (Homo sapiens, UniProt P41143). Conditions: HEK293, at 100 µM.
In data set [7] the target is T3, Kappa-type opioid receptor (Homo sapiens, UniProt P41145). Briefly: Agonist activity at GFP-fused kappa opioid receptor (unknown origin) expressed in HEK293 cells assessed as recruitment of beta-arrestin-2 after 10 mins by BRET assay. Type of data set: cell-based.
T3 sequence (P41145 whole entry, the tested form may be a part): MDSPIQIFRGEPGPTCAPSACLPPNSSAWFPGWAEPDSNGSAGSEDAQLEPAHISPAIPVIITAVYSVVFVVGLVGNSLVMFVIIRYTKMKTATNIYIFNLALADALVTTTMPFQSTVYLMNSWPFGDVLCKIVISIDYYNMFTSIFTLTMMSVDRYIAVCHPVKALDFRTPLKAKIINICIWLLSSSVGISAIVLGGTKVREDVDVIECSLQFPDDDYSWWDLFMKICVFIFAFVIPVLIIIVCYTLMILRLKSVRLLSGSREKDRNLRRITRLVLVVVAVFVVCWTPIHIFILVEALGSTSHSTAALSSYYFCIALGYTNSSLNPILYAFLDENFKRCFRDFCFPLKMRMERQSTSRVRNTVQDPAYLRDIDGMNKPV
Data set [8] addresses T2, Delta-type opioid receptor. Conditions: HEK293, at 100 µM. The source holds these as a separate data set.
The target of data set [9] is T2, Delta-type opioid receptor. Briefly: Agonist activity at delta opioid receptor (unknown origin) expressed in HEK293 cells assessed as inhibition of forskolin-induced cAMP accumulation after 30 mins. Type of data set: functional, cell-based. Background: Cyclic AMP is a second messenger, typically raised through Gs and lowered through Gi signalling.
Data set [10] concerns the target Mu-type opioid receptor (Rattus norvegicus, UniProt P33535). Briefly: Displacement of [3H]DAMGO from mu opioid receptor in Sprague-Dawley rat brain P2 synaptosomal membranes.
Data set [11] deals with T1, Mu-type opioid receptor. Briefly: Potency index, ratio of DAMGO EC50 to compound EC50 for mu opioid receptor (unknown origin) by beta-arrestin-2 recruitment assay.
Data set [12] has as its target T2, Delta-type opioid receptor. Conditions: HEK293, at 0.1 to 10 µM.
Data set [13] deals with T3, Kappa-type opioid receptor. Conditions: HEK293, at 0.1 to 10 µM.
Data set [14] has as its target T1, Mu-type opioid receptor. The settings on record: HEK293, at 1 µM.
The target in data set [15] is T1, Mu-type opioid receptor. Briefly: Intrinsic efficacy at GFP-fused mu opioid receptor (unknown origin) expressed in HEK293 cells assessed as recruitment of beta-arrestin-2 after 10 mins by BRET assay relative to untreated control. Type of data set: cell-based. The settings on record: hek293, 10 min.
In data set [16] the target is T2, Delta-type opioid receptor. Briefly: Agonist activity at GFP-fused delta opioid receptor (unknown origin) expressed in HEK293 cells assessed as recruitment of beta-arrestin-2 after 10 mins by BRET assay. Type of data set: functional, cell-based.
In data set [17] the target is T2, Delta-type opioid receptor. Briefly: Displacement of [3H]DPDPE from delta opioid receptor (unknown origin).
In data set [18] the target is T1, Mu-type opioid receptor. Briefly: Displacement of [3H]DAMGO from mu opioid receptor (unknown origin).
A short description of data set [19]: Displacement of [3H]DPDPE from delta opioid receptor in guinea pig brain membranes after 1 hr. Type of data set: cell membranes, Cavia porcellus, Membrane.

The structures appear in SMILES notation. Active and inactive are the calls of the source. The rule behind the calls is not given here. Residues, ends and D or L forms follow the SMILES beside them.

Sequence of Mu-type opioid receptor (Cavia porcellus, UniProt P97266) (P97266 whole entry): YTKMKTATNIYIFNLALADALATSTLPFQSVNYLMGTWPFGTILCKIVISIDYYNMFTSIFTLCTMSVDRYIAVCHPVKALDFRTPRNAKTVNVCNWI
T1 sequence (P35372 whole entry): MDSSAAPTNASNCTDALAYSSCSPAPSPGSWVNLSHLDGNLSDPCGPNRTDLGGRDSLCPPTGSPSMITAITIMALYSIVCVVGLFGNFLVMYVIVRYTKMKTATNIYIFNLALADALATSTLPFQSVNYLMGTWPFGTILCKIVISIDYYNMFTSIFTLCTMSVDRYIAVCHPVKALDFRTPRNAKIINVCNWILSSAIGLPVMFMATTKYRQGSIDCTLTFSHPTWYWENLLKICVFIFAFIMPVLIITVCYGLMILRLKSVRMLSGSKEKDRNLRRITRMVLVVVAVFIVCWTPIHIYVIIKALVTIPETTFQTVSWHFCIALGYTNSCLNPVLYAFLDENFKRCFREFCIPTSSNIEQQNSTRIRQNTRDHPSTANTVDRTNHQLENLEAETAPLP
T2 sequence (P41143 whole entry, the tested form may be a part): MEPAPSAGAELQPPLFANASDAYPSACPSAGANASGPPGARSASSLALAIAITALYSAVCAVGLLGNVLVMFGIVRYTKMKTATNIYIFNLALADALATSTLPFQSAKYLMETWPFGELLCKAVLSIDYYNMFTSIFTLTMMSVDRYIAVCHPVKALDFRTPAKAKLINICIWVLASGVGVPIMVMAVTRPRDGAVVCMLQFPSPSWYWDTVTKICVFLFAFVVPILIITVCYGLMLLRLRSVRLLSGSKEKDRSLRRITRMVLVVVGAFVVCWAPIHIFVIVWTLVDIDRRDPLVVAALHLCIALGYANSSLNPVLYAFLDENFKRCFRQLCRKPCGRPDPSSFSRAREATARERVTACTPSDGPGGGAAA
Sequence of Mu-type opioid receptor (Rattus norvegicus, UniProt P33535) (P33535 whole entry): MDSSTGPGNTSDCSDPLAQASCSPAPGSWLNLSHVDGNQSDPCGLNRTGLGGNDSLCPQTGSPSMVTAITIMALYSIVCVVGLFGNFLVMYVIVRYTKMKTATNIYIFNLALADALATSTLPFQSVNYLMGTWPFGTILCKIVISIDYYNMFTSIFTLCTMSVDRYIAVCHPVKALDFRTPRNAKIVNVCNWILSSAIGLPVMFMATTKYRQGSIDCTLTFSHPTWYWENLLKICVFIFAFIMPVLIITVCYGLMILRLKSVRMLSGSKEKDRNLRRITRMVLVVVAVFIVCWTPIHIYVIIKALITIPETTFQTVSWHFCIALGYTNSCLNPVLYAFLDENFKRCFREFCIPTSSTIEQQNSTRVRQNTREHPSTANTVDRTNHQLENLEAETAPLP

Turning to `Cc1cc(O)cc(C)c1C[C@H](N)C(=O)N1CCC[C@H]1C(=O)N[C@@H](Cc1c[nH]c2ccccc12)C(N)=O` (HELM PEPTIDE1{[Cc1cc(O)cc(C)c1C[C@H](N)C(=O)[*:2]].P.W.[am]}$$$$V2.0), the IC50 – broadly, the concentration that gives 50% inhibition – on Mu-type opioid receptor [1] is 10.4 nM; in data set [2], > 10000 nM; in [9] it was < 100 nM. For the same compound, the inhibition entry (on Mu-type opioid receptor [3]; in data set [12]; in data set [13]; on Mu-type opioid receptor [14]) was “Active” in each case. Besides, the results for the Ki (in data set [4]; on Mu-type opioid receptor [10]) were 66.4 nM and 0.21 nM, respectively. Moreover, the figures for the EC50 (at Mu-type opioid receptor [5]; in [7]; in data set [16]) were 6.3 nM, “Not Active” and “Not Active”, respectively. Further, the inhibition result in data set [6] and in [8] was “inactive” throughout. Moreover, the “Ratio EC50” value on Mu-type opioid receptor [11] is 60. Moreover, the Ratio on Mu-type opioid receptor [15] is recorded as 0.6.

Take `Cc1cc(O)cc(C)c1C[C@H](N)C(=O)N1CCC[C@H]1C(=O)N[C@@H](Cc1ccccc1)C(N)=O` (HELM PEPTIDE1{[Cc1cc(O)cc(C)c1C[C@H](N)C(=O)[*:2]].P.F.[am]}$$$$V2.0): the IC50 came to 2.33 nM at Mu-type opioid receptor [1] and 113 nM in data set [2]. The figures for the Ki (in data set [17]; on Mu-type opioid receptor [18]) were 53.2 nM and 0.12 nM, respectively.

Take `CC(C)C[C@@H](NC(=O)[C@H](Cc1ccccc1)NC(=O)CNC(=O)[C@@H](C)NC(=O)[C@@H](N)Cc1ccc(O)cc1)C(=O)O` [DADLE]: on Mu-type opioid receptor [1], the IC50 worked out at 13.4 nM. Affinity in [19] was put at a Ki of 0.3 nM.

(Values after ChEMBL document CHEMBL3232856, “Endomorphin analogues with mixed μ-opioid (MOP) receptor agonism/δ-opioid (DOP) receptor antagonism and lacking β-arrestin2 recruitment activity” (Bioorg Med Chem, 2014).)
